Experimental data from patent US6362176B1, “Compositions, methods and kits for treating rheumatoid arthritis” (Super Gen, Inc., priority 1998, dated 2002).

Assays:
individuals with RA = conditions: cited from earlier work
[1] = cited from earlier work
RA patients [2] = test: pentostatin monotherapy on a monthly schedule (inventor); format: in vivo, human; conditions: treatment continued past the flare
Source text: When the treatment was continued past the flare, approximately a third of the patients entered a pharmaceutical free remission for a period of weeks or months.

RA patients [3] = conditions: bi-weekly pentostatin, months 1 and 3; cited from earlier work
CLL; hairy cell leukemia = conditions: cited from earlier work
[4] = 4 mg/M^2 once a week x3 or 4 followed by once every three to four weeks

| SMILES | patients remaining on methotrexate for two or more years (individuals with RA; in vivo) | time to worsening of RA after monotherapy is discontinued (individuals with RA; in vivo) | patients expected to obtain at least partial relief (individuals with RA; methotrexate monotherapy, recent studies) | individuals still on the drug five years after starting (individuals with RA; methotrexate monotherapy) | individuals with RA getting some favorable response (individuals with RA; methotrexate monotherapy) | patients entering remission as defined by ACR criteria (individuals with RA; methotrexate monotherapy) | time of peak serum concentrations ([1]; intramuscular administration) | absorption ([1]; parenteral administration) | patients entering a pharmaceutical free remission for weeks or months (RA patients [2]) | patients with significant flare (duration of morning stiffness, tender and swollen joints) (RA patients [3]) | efficacy in hairy cell leukemia (CLL; hairy cell leukemia; [4]) | toxicity at even lower doses (CLL; hairy cell leukemia; [4]) | toxicity at lower doses (CLL; hairy cell leukemia; 5 mg/M^2 on two successive days) | clinical response in CLL (CLL; hairy cell leukemia; doses of 1.0 to 13.5 mg/kg) | toxicity at very high doses (CLL; hairy cell leukemia; very high doses) |
| --- | --- | --- | --- | --- | --- | --- | --- | --- | --- | --- | --- | --- | --- | --- | --- |
| CN(Cc1cnc2nc(N)nc(N)c2n1)c1ccc(C(=O)N[C@@H](CCC(=O)O)C(=O)O)cc1 [methotrexate, N-[4-[[(2,4-diamino-6-pteridinyl)methyl]methylamino]benzoyl]-L-glutamic acid] | Up to 70% | three to six | about 70% | over 50% | Approximately 70% | less than 30% | thirty to sixty | generally complete absorption | – | – | – | – | – | – | – |
| OC[C@H]1O[C@@H](n2cnc3c2NC=NC[C@H]3O)C[C@@H]1O [pentostatin, 2′-deoxycoformycin] | – | – | – | – | – | – | – | – | approximately a third | 9 of 11 | effective in inducing remission in hairy cell leukemia | no toxicity | mild with transient leukopenia, nausea and lethargy or somnolence | cytoreduction but no clinically meaningful remission in CLL | substantial and may include renal failure secondary to acute tubular necrosis, central nervous system toxicity (seizures), pulmonary edema, and keratoconjunctivitis |
